Test results published in PMC11601558, “SLC6A19 inhibition facilitates urinary neutral amino acid excretion and lowers plasma phenylalanine” (JCI Insight, 2024).

Tests used:
healthy volunteers = assay: Urine amino acid excretion in healthy volunteers (pharmacodynamics); format: in vivo, human
Procedure: The effect of JNT-517 on plasma and urine AA levels was measured using an ultra-performance liquid chromatography mass spectrometry assay following 6-aminoquinolyl-N-hydroxysuccinimidyl carbamate (AQC) derivatization. For the SAD study, plasma samples were collected on day –1 and day 1 predose, as well as 24, 48, and 72 hours after dosing. A first morning void urine sample on Days –1 and 1 predose, as well as 2 pooled urine samples 0–8 hours after and 8–24 hours after dose were also collected following study drug administration. For the MAD study, plasma samples were collected on day –1, 1, 7, and 14 predose, as well as day 14, 24 hours after dosing. A first morning void urine samples on day –1, 1, 7, and 14 as well as 2 pooled urine samples 0–8 hours and 8–24 hours after dose on days 1, 7, and 14 were also collected following JNT-517 or placebo administration. Study participants in SAD and MAD cohorts were dosed in the morning following an overnight fast of at least 8 hours and were provided the following meals in relation to dosing times: breakfast after the morning dose, lunch 4 hours after morning dose, optional snack in the afternoon 8 hours after the morning dose and after the second dose for MAD cohorts dosed BID, dinner approximately 10 hours after the morning dose and at least 2 hours after the second dose for MAD cohorts dosed BID. Predose plasma amino acids were drawn after a minimum of 8 hours fasting overnight and after-dose levels were drawn after > 1.5 hours fasting. Resulting plasma and urine amino acid concentration measurements, as well a total amino acid excretion over a time period were summarized using appropriate descriptive statistics and compared with either predose levels or placebo-dose values. Tryptophan was not included in the amino acid panel due to analytical limitations.
IC50 values for transport inhibition in cells overexpressing SLC6A19 and TMEM27 were calculated using a 4-parameter logistic regression in Collaborative Drug Discovery (CDD). Reported IC50 values are geometric means of 4–6 independent experiments. For postmortem intestinal transport assays, single outliers of quadruplicate replicates were excluded from the calculation if a signal value’s distance to the mean exceeded 35% of the signal average. The IC50 values of individual experiments were calculated with a 3- or 4-parameter logistic regression using GraphPad Prism 9. The reported IC50 value represents the geometric mean of n = 5 experiments from 3 individual donors. Statistical comparison of urinary Phe excretion in Pah^enu2 mice treated with vehicle or JN-170 was conducted using 1-way analysis of variance (ANOVA) with Tukey’s post hoc comparison. Statistical analysis of baseline-adjusted plasma Phe in mice treated with vehicle or JN-170 was determined by 2-way ANOVA with Dunnett’s post hoc comparison. All statistical analyses were performed using GraphPad Prism 9. For clinical studies, group sizes were not determined based on statistical power calculations. Statistical significance of pharmacodynamic results was not assessed. Values are reported as mean (urinary Phe excretion, T1/2, Cl/F), geometric mean (Cmax/D, AUC0-inf/D), or median (Tmax).

SLC6A19 = molecular target: T1, SLC6A19 (Homo sapiens, UniProt Q695T7); assay: SLC6A19 glutamine transport assay in human postmortem intestinal epithelial cells; format: cell-based; conditions: endogenous SLC6A19; geometric mean n = 5, 3 donors; 95% CI 33–197 nM
T1 construct: human intestinal epithelial cells with endogenous expression levels of SLC6A19; tissue AnaBios; host or cells: epithelial cells scraped from distal jejunum of human postmortem intestine (3 male donors)
T1 sequence (Q695T7 whole entry): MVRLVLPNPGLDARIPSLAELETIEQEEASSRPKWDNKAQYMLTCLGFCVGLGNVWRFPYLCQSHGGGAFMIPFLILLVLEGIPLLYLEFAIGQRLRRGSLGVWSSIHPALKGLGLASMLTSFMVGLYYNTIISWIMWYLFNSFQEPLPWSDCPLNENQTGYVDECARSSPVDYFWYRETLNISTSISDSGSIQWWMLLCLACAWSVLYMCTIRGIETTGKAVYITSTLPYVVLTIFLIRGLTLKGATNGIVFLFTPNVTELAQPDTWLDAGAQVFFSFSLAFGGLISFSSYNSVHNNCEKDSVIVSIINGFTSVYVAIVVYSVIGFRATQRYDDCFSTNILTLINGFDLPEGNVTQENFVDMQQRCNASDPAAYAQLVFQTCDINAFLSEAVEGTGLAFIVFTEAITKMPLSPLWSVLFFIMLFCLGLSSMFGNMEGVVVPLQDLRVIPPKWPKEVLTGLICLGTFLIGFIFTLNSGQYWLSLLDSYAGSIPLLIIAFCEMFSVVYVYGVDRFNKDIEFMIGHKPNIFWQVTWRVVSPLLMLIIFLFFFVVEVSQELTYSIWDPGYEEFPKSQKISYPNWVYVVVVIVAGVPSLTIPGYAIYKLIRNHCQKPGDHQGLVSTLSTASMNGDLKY
T1 sequence (Q9BYF1 18-805 partner): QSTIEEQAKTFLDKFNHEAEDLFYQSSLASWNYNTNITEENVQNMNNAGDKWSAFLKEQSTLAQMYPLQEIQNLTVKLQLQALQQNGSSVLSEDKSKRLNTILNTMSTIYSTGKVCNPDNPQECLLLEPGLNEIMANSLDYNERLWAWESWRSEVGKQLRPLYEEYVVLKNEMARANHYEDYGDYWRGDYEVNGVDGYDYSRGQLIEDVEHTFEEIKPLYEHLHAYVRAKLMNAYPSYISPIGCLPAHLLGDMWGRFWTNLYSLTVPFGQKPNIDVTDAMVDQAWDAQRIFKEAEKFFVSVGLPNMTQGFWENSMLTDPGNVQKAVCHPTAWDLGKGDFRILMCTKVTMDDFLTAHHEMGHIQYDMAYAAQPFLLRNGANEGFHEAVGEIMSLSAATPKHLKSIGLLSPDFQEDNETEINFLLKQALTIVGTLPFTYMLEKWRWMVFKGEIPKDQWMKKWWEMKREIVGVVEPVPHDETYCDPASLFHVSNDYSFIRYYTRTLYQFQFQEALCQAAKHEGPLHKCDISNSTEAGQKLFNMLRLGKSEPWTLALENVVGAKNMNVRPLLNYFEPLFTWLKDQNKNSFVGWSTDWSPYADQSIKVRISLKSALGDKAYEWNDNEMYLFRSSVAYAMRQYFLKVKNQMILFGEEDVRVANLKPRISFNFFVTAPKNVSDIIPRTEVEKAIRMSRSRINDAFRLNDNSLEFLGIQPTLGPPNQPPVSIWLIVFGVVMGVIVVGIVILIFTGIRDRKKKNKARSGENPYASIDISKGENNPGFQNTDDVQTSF
Excerpt: Human postmortem intestines from 3 male donors (ages 23–36 years) were provided by AnaBios. Following trimming of excess fat, the distal part of the jejunum was dissected into tissue sections of approximately 100 cm^2 and further processed on ice. These sections contained an estimated approximately 250 million epithelial cells ([28], [29]). Epithelial cells were scraped off each tissue section with a tissue scraper and collected in ice-cold Hank’s balanced salt solution (HBSS). Following centrifuging for 5 min at 300g at 4°C, the supernatant was aspirated and the cell pellet was washed 3–6 times by resuspending in ice-cold HBSS (Thermo Fisher Scientific). […]
Human postmortem epithelial cells isolated from small intestine were centrifuged for 5 minutes at 300g and 4°C and resuspended in Krebs buffer (140 mM sodium chloride, 4.7 mM KCl, 2.5 mM CaCl2, 1.2 mM MgCl2, 11 mM HEPES, 10 mM glucose, pH 7.4) at a density of 7.5 × 10^6 cells/mL. […] The uptake of 2,3,4-^3H–labeled L-glutamine was measured on a Microbeta^2 microplate counter (PerkinElmer).
IC50 values for transport inhibition in cells overexpressing SLC6A19 and TMEM27 were calculated using a 4-parameter logistic regression in Collaborative Drug Discovery (CDD). […] The IC50 values of individual experiments were calculated with a 3- or 4-parameter logistic regression using GraphPad Prism 9. […]

`NC(=O)N1CCC[C@@H](N(C(=O)NCc2ccc(OC(F)(F)F)cc2F)C2CC2)C1` [JNT-517] was tested, and the “24 hour Phe excretion, mean ± SD” value (healthy volunteers; MAD day 14, 75 mg BID) was 89 ± 34 mg, the “Phe excreted from 0–8 hours, mean ± SD” value (healthy volunteers; MAD day 14, 75 mg BID) was 32 ± 20 mg and the “urine Phe excreted from 8–24 hours, mean ± SD” value (healthy volunteers; MAD day 14, 75 mg BID) was 56 ± 19 mg. For the same molecule, the “24 hour Phe excretion, mean ± SD” value (healthy volunteers; MAD day 14, 150 mg QD) was 72 ± 18 mg, the “Phe excreted from 0–8 hours, mean ± SD” value (healthy volunteers; MAD day 14, 150 mg QD) was 53 ± 16 mg and the “urine Phe excreted from 8–24 hours, mean ± SD” value (healthy volunteers; MAD day 14, 150 mg QD) was 20 ± 11 mg. The “Phe excreted in urine over a 24 hour period, mean ± SD” value (healthy volunteers; SAD 170 mg) was 142 ± 30 mg, the “increase in 24 hour urinary Phe vs placebo” value (healthy volunteers; SAD 170 mg) was “approximately 14 fold” and the “glutamine excreted in urine, mean ± SD” value (healthy volunteers; SAD 170 mg, Supplemental Figure 6) was 1,904 ± 541 mg. It also gave an IC50 (SLC6A19) of 81 nM.
